Assay results reported in patent US6803371B2, “Purine inhibitors of protein kinases, G proteins and polymerases” (The Regents of the University of California, priority 1997, dated 2004).

Tests used:
erk1 = erk1 (Homo sapiens, UniProt P27361); test: erk1 kinase inhibition; assay type: biochemical; settings: read-out: IC50 (additional kinases) erk1
cdc2/cyclinB = cdc2/cyclinB kinase inhibition; assay type: biochemical

Sequence of erk1 (P27361 whole entry, species assumed): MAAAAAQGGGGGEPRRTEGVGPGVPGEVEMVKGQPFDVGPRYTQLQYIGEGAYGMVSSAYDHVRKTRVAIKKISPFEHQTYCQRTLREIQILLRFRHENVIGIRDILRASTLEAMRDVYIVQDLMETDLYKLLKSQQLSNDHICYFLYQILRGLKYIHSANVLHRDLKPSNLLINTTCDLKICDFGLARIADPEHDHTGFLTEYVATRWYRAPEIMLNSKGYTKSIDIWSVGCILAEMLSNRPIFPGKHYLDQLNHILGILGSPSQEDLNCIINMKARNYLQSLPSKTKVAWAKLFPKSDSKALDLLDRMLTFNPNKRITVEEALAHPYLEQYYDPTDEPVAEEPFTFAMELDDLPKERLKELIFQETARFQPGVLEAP

## COc1ccc(CNc2nc(N(CC(C)O)CC(C)O)nc3c2ncn3C(C)C)cc1 (stereo not shown) [NG-16]
erk1
  IC50: 50000 nM
cdc2/cyclinB
  IC50: 240 nM

## CC[C@H](CO)Nc1nc(NCc2ccc(OC)cc2)c2ncn(C(C)C)c2n1 [NG-33]
erk1
  IC50: > 10000 nM

## COc1ccc(CNc2nc(N[C@@H](CO)CC(C)C)nc3c2ncn3C(C)C)cc1 [NG-36]
erk1
  IC50: > 10000 nM
cdc2/cyclinB
  IC50: 100 nM

## CC(C)n1cnc2c(Nc3ccccc3)nc(NCCO)nc21 [NG-42]
cdc2/cyclinB
  IC50: 4300 nM

## CC(C)n1cnc2c(Nc3ccccc3Cl)nc(NCCO)nc21 [NG-43]
cdc2/cyclinB
  IC50: 4300 nM

## CC(C)n1cnc2c(Nc3cccc(Br)c3)nc(NCCO)nc21 [NG-45]
cdc2/cyclinB
  IC50: 270 nM

## COc1ccccc1Nc1nc(NCCO)nc2c1ncn2C(C)C [NG-46]
cdc2/cyclinB
  IC50: 9000 nM

## CC(C)n1cnc2c(Nc3ccc4ccccc4c3)nc(NCCO)nc21 [NG-47]
cdc2/cyclinB
  IC50: 430 nM

## COc1ccc(CNc2nc(N(CCO)Cc3ccccc3)nc3c2ncn3C(C)C)cc1 [NG-49]
cdc2/cyclinB
  IC50: 2800 nM

## COc1ccc(CNc2nc(NCC(O)c3ccccc3)nc3c2ncn3C(C)C)cc1 (stereo not shown) [NG-50]
cdc2/cyclinB
  IC50: 2800 nM

## CC(C)n1cnc2c(Nc3cccc(C(F)(F)F)c3)nc(NCCO)nc21 [NG-51]
cdc2/cyclinB
  IC50: 420 nM

## CC(C)n1cnc2c(Nc3cccc(Cl)c3)nc(NCCO)nc21 [NG-52]
cdc2/cyclinB
  IC50: 220 nM

## CC(C)n1cnc2c(Nc3ccccc3C(F)(F)F)nc(NCCO)nc21 [NG-53]
cdc2/cyclinB
  IC50: 10000 nM

## CC(C)n1cnc2c(Nc3ccc(Cl)cc3Cl)nc(NCCO)nc21 [NG-54]
cdc2/cyclinB
  IC50: 2700 nM

## CC(C)C(CO)Nc1nc(Nc2cc(Cl)cc(Cl)c2)c2ncn(C(C)C)c2n1 (stereo not shown) [NG-57]
cdc2/cyclinB
  IC50: 400 nM

## CC(C)n1cnc2c(Nc3cccc(Cl)c3)nc(N[C@H](CO)c3ccccc3)nc21 [NG-59]
cdc2/cyclinB
  IC50: 800 nM

## CC(C)n1cnc2c(Nc3cccc(Cl)c3)nc(N[C@H](CO)C(C)(C)C)nc21 [NG-61]
cdc2/cyclinB
  IC50: 2300 nM

## CCC(C)[C@@H](CO)Nc1nc(Nc2cccc(Cl)c2)c2ncn(C(C)C)c2n1 (stereo partly shown) [NG-62]
cdc2/cyclinB
  IC50: 500 nM

## CC(C)n1cnc2c(Nc3cccc(F)c3)nc(NCCO)nc21 [NG-65]
cdc2/cyclinB
  IC50: 400 nM

## CC(C)[C@H](CO)Nc1nc(Nc2ccc(O)c(C(=O)O)c2)c2ncn(C(C)C)c2n1 [NG-94]
cdc2/cyclinB
  IC50: ~100 nM

## CC(C)[C@H](CO)Nc1nc(Nc2ccc(Cl)c(C(=O)O)c2)c2ncn(C(C)C)c2n1 [NG-96]
cdc2/cyclinB
  IC50: ~30 nM

## CC(C)[C@H](CO)Nc1nc(Nc2cc(N)cc(Cl)c2)c2ncn(C(C)C)c2n1 [NG-97]
cdc2/cyclinB
  IC50: 30 nM

## CC(C)[C@H](CO)Nc1nc(Nc2ccc(Cl)c(N)c2)c2ncn(C(C)C)c2n1 [NG-98]
cdc2/cyclinB
  IC50: 30 nM
